Results as given in ChEMBL document CHEMBL1201862, “PubChem BioAssay data set” (2004).
Activity calls are given as the source filed them. For most assays here, no stated cut-off is given here; in the data, actives have a measured EC50 and inactives only a lower limit.

Tests used:
Aminopeptidase N = molecular target: T1, Aminopeptidase N (Plasmodium falciparum FcB1/Columbia, UniProt O96935); test: P. falciparum M1AAP inhibitors, biochemical, fluorogenic H-Leu-NHMec substrate, 1536-well (AID 1445); parameters: species or system Plasmodium falciparum 3D7, 3D7
T1 sequence (O96935 whole entry): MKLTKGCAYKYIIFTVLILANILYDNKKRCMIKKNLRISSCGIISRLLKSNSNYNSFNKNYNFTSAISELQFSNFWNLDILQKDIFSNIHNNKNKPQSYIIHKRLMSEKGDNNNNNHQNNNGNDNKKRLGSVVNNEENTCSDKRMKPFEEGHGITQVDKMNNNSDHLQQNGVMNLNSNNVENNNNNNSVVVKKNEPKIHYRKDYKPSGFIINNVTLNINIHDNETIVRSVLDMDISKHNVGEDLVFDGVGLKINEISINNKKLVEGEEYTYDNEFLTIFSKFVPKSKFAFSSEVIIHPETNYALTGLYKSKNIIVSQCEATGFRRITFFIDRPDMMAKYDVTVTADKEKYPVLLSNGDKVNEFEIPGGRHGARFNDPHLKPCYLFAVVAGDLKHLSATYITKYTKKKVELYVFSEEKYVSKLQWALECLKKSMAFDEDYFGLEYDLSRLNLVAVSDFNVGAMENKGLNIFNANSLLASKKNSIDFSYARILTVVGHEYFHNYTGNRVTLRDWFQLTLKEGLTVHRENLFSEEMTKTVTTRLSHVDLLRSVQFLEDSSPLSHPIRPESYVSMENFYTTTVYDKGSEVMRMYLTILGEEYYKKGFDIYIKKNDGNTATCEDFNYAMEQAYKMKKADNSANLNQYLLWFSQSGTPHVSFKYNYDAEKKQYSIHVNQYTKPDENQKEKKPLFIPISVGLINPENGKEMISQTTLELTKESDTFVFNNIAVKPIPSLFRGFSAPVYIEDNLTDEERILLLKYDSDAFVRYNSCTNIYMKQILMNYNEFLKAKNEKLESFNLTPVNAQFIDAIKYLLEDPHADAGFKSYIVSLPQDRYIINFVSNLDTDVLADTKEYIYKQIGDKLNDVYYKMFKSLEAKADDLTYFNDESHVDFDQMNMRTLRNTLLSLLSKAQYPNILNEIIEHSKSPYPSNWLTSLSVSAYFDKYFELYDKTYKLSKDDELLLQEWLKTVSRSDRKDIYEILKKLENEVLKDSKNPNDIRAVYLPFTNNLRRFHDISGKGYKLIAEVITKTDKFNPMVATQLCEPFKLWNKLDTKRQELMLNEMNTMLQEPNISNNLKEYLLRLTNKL

[1] = molecular target: T2, RNA-binding protein pos-1 (Caenorhabditis elegans, UniProt G5EF15); test: inhibitors of POS-1/mex-3 RNA binding, dose response, biochemical, fluorescence polarization (AID 1964);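 further: purified POS-1 fused to maltose binding protein made in E. coli; potency of compounds blocking POS-1 binding to fluorescent RNA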
T2 sequence (G5EF15 whole entry): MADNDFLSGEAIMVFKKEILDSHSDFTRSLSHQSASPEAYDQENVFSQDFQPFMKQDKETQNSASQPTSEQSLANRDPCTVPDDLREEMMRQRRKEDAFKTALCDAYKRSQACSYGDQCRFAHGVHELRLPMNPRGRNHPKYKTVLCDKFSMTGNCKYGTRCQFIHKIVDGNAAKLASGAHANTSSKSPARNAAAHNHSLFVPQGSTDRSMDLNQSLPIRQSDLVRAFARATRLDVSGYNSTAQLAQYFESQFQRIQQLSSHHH

[2] = molecular target: T3, Zinc finger protein mex-5 (Caenorhabditis elegans, UniProt Q9XUB2); test: MEX-5/TCR-2 RNA interaction inhibitors, dose response, biochemical, C. elegans, fluorescence polarization (AID 1960)
T3 sequence (Q9XUB2 whole entry): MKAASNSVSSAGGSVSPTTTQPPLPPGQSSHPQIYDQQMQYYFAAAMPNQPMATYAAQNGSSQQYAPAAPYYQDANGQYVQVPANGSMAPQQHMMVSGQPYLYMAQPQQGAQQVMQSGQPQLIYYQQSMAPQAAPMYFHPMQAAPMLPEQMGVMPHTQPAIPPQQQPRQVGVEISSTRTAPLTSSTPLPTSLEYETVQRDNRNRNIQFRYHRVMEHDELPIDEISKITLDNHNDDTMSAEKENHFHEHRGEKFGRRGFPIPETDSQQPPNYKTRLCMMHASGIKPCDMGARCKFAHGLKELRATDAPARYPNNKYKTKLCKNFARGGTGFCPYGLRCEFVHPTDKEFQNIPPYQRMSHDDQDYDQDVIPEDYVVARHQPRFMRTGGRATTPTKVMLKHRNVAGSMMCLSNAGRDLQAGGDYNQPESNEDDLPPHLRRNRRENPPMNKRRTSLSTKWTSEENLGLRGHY

[3] = P. falciparum Dd2 growth inhibitors, dose response, SYBR Green, cherry-picked samples (AID 1159567); format: functional, cell-based
[4] = molecular target: T4, Ubiquitin-conjugating enzyme E2 N (Homo sapiens, UniProt P61088); format: functional;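 further: Dose-response confirmation in a TR-FRET assay detecting UBC13-driven polyubiquitin chain formation, inhibition measured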
T4 sequence (P61088 whole entry): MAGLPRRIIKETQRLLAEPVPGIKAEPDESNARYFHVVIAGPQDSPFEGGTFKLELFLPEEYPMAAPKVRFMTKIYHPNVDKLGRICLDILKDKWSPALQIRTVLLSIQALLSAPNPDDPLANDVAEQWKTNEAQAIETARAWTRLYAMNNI

[5] = inhibitors of intracellular T. cruzi replication, confirmation, NIH3T3 host cells, beta-gal luminescence (AID 2044); format: functional, cell-based;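 further: intracellular parasites grown in NIH/3T3 mouse fibroblasts as host cells; luminescent beta-galactosidase reporter signal from transgenic T. cruzi replicating inside host cells; inhibitors lower the luminescence signal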
[6] = cytotoxicity toward NIH3T3 fibroblasts, dose response, counter-screen, cell-based, ATP luminescence, mouse fibroblasts (AID 2010); format: functional;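 further: cells exposed to compound for about 90 hours before reading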

| SMILES | EC50 [1] | EC50 [2] | also measured |
| --- | --- | --- | --- |
| CN(C)Cc1c(O)ccc2c3c(c(=O)oc12)CCCCC3 |  |  | IC50 (Aminopeptidase N): 44.5 µM (active) |
| N=c1c(C(=O)NCC2CCCO2)cc2c(=O)n3ccccc3nc2n1Cc1ccccc1Cl (centres undefined) | 104 µM (active) | 195 µM (active) |  |
| O=C1NC(=O)N(c2ccccc2)C(=O)/C1=C\NN1C(=O)c2cccc3cccc(c23)C1=O | > 300 µM (not active) | 72 µM (active) |  |
| CCc1nnc(NS(=O)(=O)c2ccc(NC(=S)NC(=O)c3cccs3)cc2)s1 |  |  | IC50 (Aminopeptidase N): 35.4 µM (active) |
| CO[C@@H]1CN(C)C(=O)c2cc(NC(=O)Nc3cccc(Cl)c3)ccc2OC[C@H](C)NC[C@H]1C |  |  | AC50 [3]: 6.78 µM (active) |
| O=c1oc2c(CN3CCOCC3)c(O)ccc2c2c1CCCC2 |  |  | IC50 (Aminopeptidase N): 23.7 µM (active) |
| COc1ccc(C2C(C#N)=C(N)OC3=C2C(=O)CC(C)C3)c(OC)c1OC (centres undefined) | > 300 µM (not active) | > 300 µM (not active) |  |
| O=C(C[C@@H]1CC[C@@H]2[C@H](COC[C@@H](O)CN2S(=O)(=O)c2ccccc2)O1)NCc1ccc(-c2ccccc2)cc1 |  |  | AC50 [3]: 6.32 µM (active) |
| COCCCNC(=O)C(C#N)c1nc2ccccc2nc1N1CCCC1 (centres undefined) | 23.8 µM (active) | > 300 µM (inconclusive) |  |
| CC(C)(C)OC(=O)[C@H](Cc1ccccc1)NC(=O)c1nc[nH]c1C(=O)N[C@@H](CCCCN)C(=O)OC(C)(C)C |  |  | IC50 [4]: > 20 µM (inactive) |
| Cc1ccc(N/C=C2/Sc3ccccc3NC2=O)cc1 | > 300 µM (not active) | > 300 µM (inconclusive) | EC50 [5]: 0.806 µM (active); EC50 [6]: > 30 µM (not active) |
| CC(=O)NC(c1ccco1)c1cc(Cl)c2ccccc2c1O (centres undefined) |  |  | IC50 [4]: > 20 µM (inactive) |
